The values that follow come from a melting point compilation (Tetko et al.; mined from patent text by program, amines drawn as free bases though some values may be those of a salt).

The structures appear in SMILES notation. Where only a bound is given, the exact number is not on record here.

In general, melting point refers to the temperature, or range, at which the solid turns liquid. `Cn1cc(C(N)=O)c(Cl)n1` gave a melting point of 164 to 166 °C.
On to `CC1CNc2cccc3c(=O)c(C(=O)O)cn1c23` (centres undefined), for which the melting point was more than 250 °C.
Under `CC1=NN(c2cccc(S(N)(=O)=O)c2)C(=O)C1=c1[nH]c(=c2[nH]c(=C3C(=O)N(c4cccc(S(N)(=O)=O)c4)N=C3C)c3ccccc23)c2ccccc12` stands more than 300 °C; under `CC(C)(C)OC(=O)NCCCCC1C(=O)OC(C)(C)OC1=O`, 112 to 113 °C.
Under `CN(c1ccccc1)S(=O)(=O)c1ccc(C=CC(C)(O)C(F)(F)F)cc1` (centres undefined) stands 146 to 148 °C.
Regarding `CC1=C(C(=O)OCCCN(C)Cc2ccccc2)C(c2ccccc2C(F)(F)F)c2c(ccnc2OC(C)C)N1` (centres undefined), the melting point was in the range of 143 to 144 °C.
Under `O=C1O[C@H]2C[C@@H]1CC[C@@H]2I` stands 130 to 131 °C; under `C(=C1CN2CCC1CC2)c1ccc(-c2ccccc2)cc1`, 107 °C; under `O=C1NCc2cc(Br)sc21`, 96 to 97 °C.
As to `CCOC(=O)CSc1nc(Cl)cc(NCc2ccc(C)cc2C)n1`, the melting point fell in the range of 95 to 98 °C.
Under `CC(=O)c1nc2ccc(S(=O)(=O)c3ccccc3)cc2cc1O` stands 179 to 180 °C.
Under `CN1Cc2c(cc3ccc4c(c3c2-c2ccc3c(c2)OCO3)OCO4)C1=O` stands 234 to 236 °C.
The figure for `CC(C)(C)OC(=O)/C=C/c1ccc(C(=C2CCCCCCC2)c2ccc(O)cc2)cc1` is 171 to 172 °C.
Take `CN1Cc2c(C(=O)OC3CCCCC3)ncn2-c2cccc(Cl)c2C1=O`: the melting point was 208 to 209 °C.
The figure for `NC(=O)c1ncn2c1[C@@H]1CCN1C(=O)c1cc(Cl)ccc1-2` is 251 to 253 °C.
For `COCc1cnn2c(-c3cccc(C(F)(F)F)c3)ccnc12`, the melting point lay in the range of 114 to 116 °C.
Under `CCCc1c2nc(C(=O)OCC)cc(NC)c2cc2c(=O)cc(C(=O)OCC)oc12` stands 235 to 237 °C; under `CC(C)c1cc(Sc2cc(C(C)C)c(O)c(C(C)C)c2)cc(C(C)C)c1O`, 93.5 to 94.2 °C; under `O=C1c2c(Cl)cccc2-n2cnc(-c3cnco3)c2[C@@H]2CCCN12`, 201 to 202 °C.
The figure for `O=C(O)/C=C/c1ccc(C(=O)NCC2CCCO2)cc1` (centres undefined) is 215 °C.
The figure for `CCOC(OCC)N1C(=O)C(c2ncnc3cc(OCCOC)c(OC)cc23)c2ccccc21` (centres undefined) is 148 to 150 °C; for `N#Cc1ccc(-c2ccc(OC(F)(F)F)c(CNC3CCN(C(=O)C(N)=O)CC3c3ccccc3)c2)c(F)c1` (centres undefined) it is 142 to 144 °C; for `CCOC(=O)CCc1cc(CCC(=O)O)cc(Oc2cccnc2)c1` it is 85 to 87 °C.
In turn, `CCOC(=O)C(C)=C(CC)NC(=O)Nc1cc(C(=O)OC(C)C)c(Cl)cc1F` came in with a melting point of 132 to 133 °C.
The molecule `COc1ccc(S(=O)(=O)C(C)(Cc2ccccc2Br)C(=O)O)cc1` (centres undefined) had a melting point of 93 to 96 °C.
Under `COCc1ncnc(O)c1OC` stands 141 to 143 °C.
Under `Nc1ncc(Cl)cc1O` stands 196 to 201 °C; under `CCc1nc(/C=C/c2cn(-c3ccccc3)nc2OCc2ccc(OCc3nc(-c4ccc(C(=O)O)o4)oc3C)c(OC)c2)cs1`, 154 to 155 °C; under `CN(C1CCN(C2CC2)CC1)S(=O)(=O)c1ccc(Nc2nccc(Nc3ccc(F)cc3)n2)cc1`, 125 to 128 °C.
Under `N#Cc1nn(-c2c(Cl)cc(C(F)(F)F)cc2Cl)c(N)c1-c1ccc(SC(F)(F)F)s1` stands 162 to 163 °C; under `CCN1CCC(c2c[nH]c3ccc(NC(=N)c4cccs4)cc23)CC1`, 150 to 152 °C.
`N#Cc1ccc(CN(c2ccc(O)cc2)n2ccnc2)cc1` yielded a melting point of 150 °C.
The figure for `CC(C)(C)C(=O)CC(Sc1ccccc1)c1ccc(Cl)cc1Cl` (centres undefined) is 79 to 80 °C.
Under `O=C(O)COc1ccc(-c2ccccc2OC2OC(CO)C(O)C(O)C2O)cc1` (centres undefined) stands 145 to 146 °C.
The molecule `NS(=O)(=O)c1ccc(CC(=O)C=CC(=O)O)cc1` yielded a melting point of 180 to 181 °C.
`COc1cc(NC(=O)Nc2ccccc2)cc(Cl)n1`: the melting point was 161 to 162 °C.
The figure for `O=C1C(O)N=C(c2ccccc2F)c2ccccc2N1C1CCNCC1` (centres undefined) is 190 to 192 °C.
As for `COc1ccc2c(c1)N(C(C)=O)C1=C(S2)C(S(C)(=O)=O)=CCC1=O`, the melting point was determined as 160 °C.
The figure for `COc1ccc2c(c1C=O)OCO2` is 124 °C.
The figure for `CC(C)(C)OC(=O)Oc1ccc(C(C(=O)OC(c2ccccc2)c2ccccc2)N2CC(NC(=O)OCc3ccccc3)C2=O)cc1` (centres undefined) is 153 to 154 °C.
Under `CCCc1cc(CP(=O)(OC)OC)c2c(CP(=O)(OC)OC)cccc2c1OC` stands 69 to 70 °C; under `Cc1ncccc1Cn1c(CO)nc(C(C)C)c1Sc1cc(Cl)cc(Cl)c1`, 127 °C.
Regarding `Cc1cc2c(s1)Nc1ccccc1N=C2N1CCN[C@@H](COc2ccccc2)C1`, the melting point was in the range of 64 to 81 °C.
Take `CCCC(=O)NCC1CCc2c(OC)ccc3cccc1c23` (centres undefined): the melting point was determined as 100 °C.
`CC(C)(C)c1ccc2c(O)ccnc2c1` returned a melting point of 207 to 209 °C.
Under `CNc1ccc(CC(=O)C(=O)O)cc1` stands 210 °C; under `O=C(Nc1cccnc1)N1CCC(=C2c3ccc(Cl)cc3C=Cc3cccnc32)CC1`, 95.9 to 97.6 °C.
The figure for `C[C@@H](NC(=O)[C@@H](NC(=O)[C@H](C/C=C/c1ccc(-c2ccccc2)c(F)c1)CC(=O)OC(C)(C)C)C(C)(C)C)c1ccccc1` is 165 to 168 °C; for `O=C1OC(CCCCN2CCN(c3ncccn3)CC2)CN1c1ccccc1` (centres undefined) it is 94 to 96 °C.
Under `Cc1cc(N2CCC3(CC2)OCCO3)c2cc(C)c(-c3ccc(Cl)cc3Cl)n2n1` stands 193 to 196 °C; under `CCCCC1=C(C#N)N(O)CS1`, 118 to 120 °C.
For the molecule `CN(C)C(=O)COc1ccc2c(c1)C[C@@H](NC(=O)OCc1ccccc1)CC2`, the melting point lay in the range of 117 to 118 °C.
The figure for `COC(=O)/C=C/c1ccc(OCc2nc(-c3ccccc3)oc2C)nc1` is 116 to 117 °C; for `N#Cc1cccc(C2=Nc3ccc(-c4cccc(F)c4F)cc3NC(=O)C2)c1` it is 240 °C.
The figure for `O=c1c2c[nH]c3ccccc3n-2c(=O)n1-c1ccccc1` is 231 to 234 °C; for `COc1c2c(c(OC)c(OC)c1OC)CC(CCCCCCCCNC(C)=O)C2` it is 57 to 61 °C.
Under `N#Cc1c(-c2ccc(Cl)c(Cl)c2)[nH]c(C(F)(F)F)c1C(F)(F)F` stands 205 to 208 °C; under `CCn1cc(C(=O)O)c(=O)c2cc(F)c(-c3csc(CNC)n3)c(OC)c21`, 164 to 166 °C.
As for `CCC(CC)n1ncn(-c2ccc(N3CCN([C@H](C)[C@@](O)(Cn4cncn4)c4ccc(F)cc4F)CC3)cc2)c1=O`, the melting point was 110 to 113 °C.
Turning to `CC1(C)COC(c2ccc(CC34CCCCN3C(=O)N(c3cc(Cl)cc(Cl)c3)C4=O)cc2)=N1` (centres undefined), the melting point is 87.2 °C.
The figure for `NCCCCc1cnc(-c2ccccc2)s1` is 62 to 64 °C; for `CS(=O)(=O)Oc1ccc2c(=O)c(C(=O)O)cn3c2c1CCC3` it is 270 to 275 °C.
The figure for `COc1cc(C2=CCCCC2)c(Cl)cc1C(=O)N1Cc2ccc(C(=O)N(C)CCCN(C)C)n2Cc2ccccc21` is 116 to 119 °C.
The figure for `Cc1nc(-c2ccc(-c3cnc4[nH]c(=O)n(CC5CCCCC5)c4n3)cc2)n[nH]1` is 315 to 318 °C; for `COCCN(C1CCS(=O)(=O)C1)S(=O)(=O)c1ccc(Nc2nccc(Nc3ccc(F)cc3)n2)cc1` (centres undefined) it is 150 °C.
As to `CC(C)(CCl)c1cc(Cl)nnc1Cl`, the melting point fell in the range of 66.5 to 68.5 °C.
Regarding `Cc1ccc2c(c1)C(=O)C(=O)N2CC(N)=O`, the melting point is 171 to 172 °C.
The figure for `COc1cccc(-c2cc3cnc(N)nc3nc2N)c1` is 284 to 286 °C; for `CC(=O)NC1CCN(c2ccccn2)CC1` it is 165 to 168 °C.
The figure for `C=C1CCC2C3CCC4CC(O)C(OCC)CC4(C)C3C(=NO)CC12C` (centres undefined) is 97 to 99 °C; for `CCOC(=O)C1OC1c1ccc(OC)cc1` (centres undefined) it is 40 to 43 °C.
Under `COCCCN1C(=O)CS(=Cc2ccccc2Cl)C1=O` (centres undefined) stands 83 °C; under `O=C(O)c1cccc(Oc2ncccc2OCCCc2ccncc2)c1`, 208 to 209 °C; under `O=C(COc1ccc(NC(=O)OCCO)cc1)OCCOC(=O)COc1ccc(NC(=O)OCCO)cc1`, 158 to 161 °C.
In turn, `CC(=O)N[C@@H]1[C@@H](CC2CO2)CC(C(=O)O)=C[C@H]1OC(C)C` (some centres undefined) had a melting point of 156 to 157 °C.
Molecule `CN1C(=O)CC[C@]2(C)c3ccc(-c4cc(C(C)(C)C)c(O)c(C(C)(C)C)c4)cc3CC[C@@H]12` gave a melting point of more than 265 °C.
Under `COC(=O)CNC(=O)c1ccc(-c2ccccc2)cc1` stands 127 to 128 °C; under `Cc1cc(-c2cc3cc(OCCNC[C@H](O)COc4ccccc4Cl)ccc3o2)no1`, 102 to 106 °C; under `COCCNC(=O)c1cccc(-c2cccc3cc(Cc4cccc(S(C)(=O)=O)c4)sc23)c1`, 131 to 132 °C.
`N#Cc1c(-c2ccc(Cl)c(Cl)c2)cc(C2CC2)[nH]c1=O` displayed a melting point of 290 to 295 °C.
The figure for `CCOC(=O)C1(NC(=O)Nc2cccc(C)c2)N=C(c2ccc(Cl)cc2)c2ccccc2-n2c(C)nnc21` (centres undefined) is 168 to 172 °C; for `CCNC(=O)N(C)C(=O)Nc1ccccc1` it is 80.5 to 81.5 °C.
`CC(CC(C)C1CCC2C3C(O)CC4CC(O)CCC4(C)C3CC(O)C12C)C(=O)O` (centres undefined): the melting point was 151 to 153 °C.
The figure for `COC(=O)COc1ccc(C(=O)NNC(=O)c2ccc(C#N)cc2)cc1` is 220 to 222 °C; for `CCCNCCCC(c1ccccc1)c1ccccc1` it is 94 to 96 °C; for `OC(c1ccc(Cl)cc1)c1cc2ccncc2[nH]1` (centres undefined) it is 176 to 180 °C.
Under `OCCCNc1ccnc(Cl)n1` stands 113 to 114 °C.
The figure for `COc1ccc(/C=C/C(=O)Nc2ccccc2C(=O)O)cc1` is 194 to 195 °C; for `CN(C)CCCOc1ccc(-c2n[nH]c3ncccc23)cc1` it is 176 to 177 °C.
